Results on one compound are retold here after ChEMBL document CHEMBL5046244, “Targeted Covalent Inhibition of Small CTD Phosphatase 1 to Promote the Degradation of the REST Transcription Factor in Human Cells” (J Med Chem, 2022).

Calls of active or inactive are those of the source. The rule behind the calls is not given here.

In this experiment the target is T1, Carboxy-terminal domain RNA polymerase II polypeptide A small phosphatase 1 (Homo sapiens) (UniProt Q9GZU7).
T1 sequence (whole entry): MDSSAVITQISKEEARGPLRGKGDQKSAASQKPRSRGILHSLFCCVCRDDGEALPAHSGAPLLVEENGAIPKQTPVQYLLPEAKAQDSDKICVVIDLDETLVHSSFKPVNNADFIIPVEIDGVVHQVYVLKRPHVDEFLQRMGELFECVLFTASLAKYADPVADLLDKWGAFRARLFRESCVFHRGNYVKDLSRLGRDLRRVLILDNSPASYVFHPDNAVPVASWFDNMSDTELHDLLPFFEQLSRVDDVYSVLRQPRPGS
Kind of experiment: Binding affinity to wild type human SCP1 assessed as covalent bond formation at 50 uM incubated for 18 hrs.

As for `C#CCCC(=O)NCCCNC(=O)C1=Cc2ccccc2S1(=O)=O`, the result was inactive.
